According to ChEMBL document CHEMBL3600363, “Discovery of potent, selective small molecule inhibitors of α-subtype of type III phosphatidylinositol-4-kinase (PI4KIIIα)” (Bioorg Med Chem Lett, 2015):

What was measured:
[1] = target: Phosphatidylinositol 4-kinase alpha (Homo sapiens, UniProt P42356); experiment: Inhibition of N-terminal FLAG-tagged human full length recombinant PI4K3alpha using D-myo-phosphatidylinositol substrate and ATP incubated for 45 mins by ADP-Glo kinase Assay
[2] = target: Phosphatidylinositol 4-kinase beta (Homo sapiens, UniProt Q9UBF8); experiment: Inhibition of N-terminal GST-tagged human full length recombinant PI4K3beta expressed in Sf9 cells using D-myo-phosphatidylinositol substrate and ATP incubated for 45 mins by ADP-Glo kinase Assay
[3] = target: Phosphatidylinositol 4,5-bisphosphate 3-kinase catalytic subunit alpha isoform (Homo sapiens, UniProt P42336); experiment: Inhibition of PI3Kalpha (unknown origin) pre-incubated for 20 mins before phosphatidylinositol 4, 5-bisphosphate substrate addition by kinase-glo plus luminescence assay
[4] = target: Phosphatidylinositol 4,5-bisphosphate 3-kinase catalytic subunit beta isoform (Homo sapiens, UniProt P42338); experiment: Inhibition of PI3Kbeta (unknown origin) pre-incubated for 20 mins before phosphatidylinositol 4, 5-bisphosphate substrate addition by kinase-glo plus luminescence assay
[5] = target: Phosphatidylinositol 4,5-bisphosphate 3-kinase catalytic subunit gamma isoform (Homo sapiens, UniProt P48736); experiment: Inhibition of PI3Kgamma (unknown origin) pre-incubated for 20 mins before phosphatidylinositol 4, 5-bisphosphate substrate addition by kinase-glo plus luminescence assay
[6] = target: T1, Phosphatidylinositol 4,5-bisphosphate 3-kinase catalytic subunit delta isoform (Homo sapiens, UniProt O00329); experiment: Inhibition of PI3Kdelta (unknown origin) pre-incubated for 20 mins before phosphatidylinositol 4, 5-bisphosphate substrate addition by kinase-glo plus luminescence assay
T1 sequence (O00329 whole entry): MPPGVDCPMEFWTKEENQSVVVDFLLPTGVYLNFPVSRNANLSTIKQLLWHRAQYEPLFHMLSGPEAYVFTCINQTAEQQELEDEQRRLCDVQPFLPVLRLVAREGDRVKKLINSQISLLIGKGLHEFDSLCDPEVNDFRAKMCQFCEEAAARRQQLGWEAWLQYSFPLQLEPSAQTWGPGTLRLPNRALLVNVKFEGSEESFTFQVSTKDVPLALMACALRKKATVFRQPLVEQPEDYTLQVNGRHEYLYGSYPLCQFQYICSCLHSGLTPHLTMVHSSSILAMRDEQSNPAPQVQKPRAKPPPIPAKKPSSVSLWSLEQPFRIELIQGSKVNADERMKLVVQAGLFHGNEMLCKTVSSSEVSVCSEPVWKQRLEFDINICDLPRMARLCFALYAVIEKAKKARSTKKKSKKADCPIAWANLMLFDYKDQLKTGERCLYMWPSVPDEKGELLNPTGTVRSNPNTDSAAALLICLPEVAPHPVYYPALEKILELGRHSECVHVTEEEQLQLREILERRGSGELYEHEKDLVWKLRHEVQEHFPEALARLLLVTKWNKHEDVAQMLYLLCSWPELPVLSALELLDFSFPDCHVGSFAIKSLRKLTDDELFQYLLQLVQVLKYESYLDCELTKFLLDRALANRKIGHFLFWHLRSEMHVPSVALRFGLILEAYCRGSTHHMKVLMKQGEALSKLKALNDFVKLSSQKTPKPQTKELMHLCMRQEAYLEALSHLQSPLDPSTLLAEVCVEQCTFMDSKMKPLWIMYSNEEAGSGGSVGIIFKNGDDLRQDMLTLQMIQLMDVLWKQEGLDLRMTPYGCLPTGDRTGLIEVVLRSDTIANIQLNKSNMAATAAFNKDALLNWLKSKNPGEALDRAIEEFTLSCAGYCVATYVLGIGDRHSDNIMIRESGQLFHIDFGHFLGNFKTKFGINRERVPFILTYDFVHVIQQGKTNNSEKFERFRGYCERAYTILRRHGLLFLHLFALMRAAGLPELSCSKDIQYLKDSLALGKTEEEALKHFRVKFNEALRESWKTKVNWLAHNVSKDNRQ

[7] = target: Phosphatidylinositol 4-phosphate 5-kinase type-1 gamma (Homo sapiens, UniProt O60331); experiment: Inhibition of PIP5K1C (unknown origin) using D-myo-phosphatidylinositol 4-phosphate substrate and ATP by ADP-Glo kinase Assay
Sequence of Phosphatidylinositol 4-phosphate 5-kinase type-1 gamma (O60331 whole entry): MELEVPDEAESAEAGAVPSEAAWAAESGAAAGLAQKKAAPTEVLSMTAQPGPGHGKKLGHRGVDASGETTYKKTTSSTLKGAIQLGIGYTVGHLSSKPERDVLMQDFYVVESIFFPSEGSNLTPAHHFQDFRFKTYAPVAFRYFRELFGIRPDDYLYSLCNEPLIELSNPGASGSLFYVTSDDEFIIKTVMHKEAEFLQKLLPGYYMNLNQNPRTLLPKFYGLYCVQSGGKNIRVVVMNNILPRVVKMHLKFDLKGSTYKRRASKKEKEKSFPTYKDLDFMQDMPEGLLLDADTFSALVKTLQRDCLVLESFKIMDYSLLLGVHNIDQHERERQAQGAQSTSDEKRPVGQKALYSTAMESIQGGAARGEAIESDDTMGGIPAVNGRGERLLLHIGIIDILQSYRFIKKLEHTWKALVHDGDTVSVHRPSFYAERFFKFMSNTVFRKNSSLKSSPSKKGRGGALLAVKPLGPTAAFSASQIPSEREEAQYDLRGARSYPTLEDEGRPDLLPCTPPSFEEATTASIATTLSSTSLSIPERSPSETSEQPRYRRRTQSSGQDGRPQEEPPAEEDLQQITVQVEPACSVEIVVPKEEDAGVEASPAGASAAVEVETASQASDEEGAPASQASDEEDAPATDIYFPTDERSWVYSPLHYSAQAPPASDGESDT

Sequence of Phosphatidylinositol 4,5-bisphosphate 3-kinase catalytic subunit gamma isoform (P48736 whole entry, canonical isoform): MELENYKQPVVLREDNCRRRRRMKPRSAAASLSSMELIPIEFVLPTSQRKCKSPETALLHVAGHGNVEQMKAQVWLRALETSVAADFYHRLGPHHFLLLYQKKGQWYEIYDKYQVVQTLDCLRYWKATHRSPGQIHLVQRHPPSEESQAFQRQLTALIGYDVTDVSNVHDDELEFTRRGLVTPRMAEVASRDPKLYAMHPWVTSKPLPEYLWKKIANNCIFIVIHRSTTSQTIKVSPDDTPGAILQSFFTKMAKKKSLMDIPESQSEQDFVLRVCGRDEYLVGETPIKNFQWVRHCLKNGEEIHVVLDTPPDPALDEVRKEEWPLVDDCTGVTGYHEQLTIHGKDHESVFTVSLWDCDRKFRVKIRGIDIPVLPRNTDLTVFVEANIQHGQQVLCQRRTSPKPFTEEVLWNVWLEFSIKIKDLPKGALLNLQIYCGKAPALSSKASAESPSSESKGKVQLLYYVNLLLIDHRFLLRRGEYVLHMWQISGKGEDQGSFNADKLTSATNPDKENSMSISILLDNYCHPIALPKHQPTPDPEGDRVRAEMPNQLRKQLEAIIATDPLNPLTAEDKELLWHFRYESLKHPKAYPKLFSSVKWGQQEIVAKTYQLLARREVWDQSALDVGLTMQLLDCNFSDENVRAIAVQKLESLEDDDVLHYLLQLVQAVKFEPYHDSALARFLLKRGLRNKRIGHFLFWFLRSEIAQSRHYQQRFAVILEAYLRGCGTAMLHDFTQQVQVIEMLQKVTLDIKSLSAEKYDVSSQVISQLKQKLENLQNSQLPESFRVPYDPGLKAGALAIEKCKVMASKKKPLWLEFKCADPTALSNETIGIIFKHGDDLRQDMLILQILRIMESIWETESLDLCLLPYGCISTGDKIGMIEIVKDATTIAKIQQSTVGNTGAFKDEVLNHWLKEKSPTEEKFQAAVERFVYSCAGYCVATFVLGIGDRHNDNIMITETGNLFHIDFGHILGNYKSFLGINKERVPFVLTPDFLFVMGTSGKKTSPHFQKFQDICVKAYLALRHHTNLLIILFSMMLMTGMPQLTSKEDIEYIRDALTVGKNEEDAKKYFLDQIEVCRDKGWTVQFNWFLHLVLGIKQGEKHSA
Sequence of Phosphatidylinositol 4,5-bisphosphate 3-kinase catalytic subunit beta isoform (P42338 whole entry, canonical isoform): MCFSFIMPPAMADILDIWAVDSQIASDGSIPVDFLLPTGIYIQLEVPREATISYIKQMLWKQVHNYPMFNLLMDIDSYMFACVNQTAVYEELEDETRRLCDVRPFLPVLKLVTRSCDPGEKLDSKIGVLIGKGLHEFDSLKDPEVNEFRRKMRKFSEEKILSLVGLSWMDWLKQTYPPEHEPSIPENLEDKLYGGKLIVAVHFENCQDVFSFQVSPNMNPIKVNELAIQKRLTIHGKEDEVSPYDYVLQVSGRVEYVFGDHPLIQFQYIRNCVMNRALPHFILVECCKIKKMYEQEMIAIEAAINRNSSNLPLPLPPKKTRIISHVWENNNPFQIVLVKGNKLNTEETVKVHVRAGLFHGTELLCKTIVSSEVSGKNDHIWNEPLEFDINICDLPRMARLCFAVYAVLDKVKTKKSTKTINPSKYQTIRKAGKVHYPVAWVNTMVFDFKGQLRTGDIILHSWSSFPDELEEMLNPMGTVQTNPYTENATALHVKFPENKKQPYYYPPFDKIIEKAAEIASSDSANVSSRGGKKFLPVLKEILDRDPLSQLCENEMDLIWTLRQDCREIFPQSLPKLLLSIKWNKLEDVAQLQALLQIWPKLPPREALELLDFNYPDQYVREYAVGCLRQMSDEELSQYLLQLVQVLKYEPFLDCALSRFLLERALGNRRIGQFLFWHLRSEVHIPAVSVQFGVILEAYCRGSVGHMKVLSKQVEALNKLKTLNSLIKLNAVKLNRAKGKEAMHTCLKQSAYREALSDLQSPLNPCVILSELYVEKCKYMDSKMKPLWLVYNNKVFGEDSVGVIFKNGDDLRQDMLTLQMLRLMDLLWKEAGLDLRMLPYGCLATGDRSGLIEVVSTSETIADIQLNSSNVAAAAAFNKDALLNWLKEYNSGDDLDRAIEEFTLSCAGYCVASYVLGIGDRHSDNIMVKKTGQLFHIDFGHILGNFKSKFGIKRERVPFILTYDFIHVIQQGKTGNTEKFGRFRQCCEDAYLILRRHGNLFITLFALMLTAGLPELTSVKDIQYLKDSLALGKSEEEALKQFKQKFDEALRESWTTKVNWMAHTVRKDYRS
Sequence of Phosphatidylinositol 4,5-bisphosphate 3-kinase catalytic subunit alpha isoform (P42336 whole entry, canonical isoform): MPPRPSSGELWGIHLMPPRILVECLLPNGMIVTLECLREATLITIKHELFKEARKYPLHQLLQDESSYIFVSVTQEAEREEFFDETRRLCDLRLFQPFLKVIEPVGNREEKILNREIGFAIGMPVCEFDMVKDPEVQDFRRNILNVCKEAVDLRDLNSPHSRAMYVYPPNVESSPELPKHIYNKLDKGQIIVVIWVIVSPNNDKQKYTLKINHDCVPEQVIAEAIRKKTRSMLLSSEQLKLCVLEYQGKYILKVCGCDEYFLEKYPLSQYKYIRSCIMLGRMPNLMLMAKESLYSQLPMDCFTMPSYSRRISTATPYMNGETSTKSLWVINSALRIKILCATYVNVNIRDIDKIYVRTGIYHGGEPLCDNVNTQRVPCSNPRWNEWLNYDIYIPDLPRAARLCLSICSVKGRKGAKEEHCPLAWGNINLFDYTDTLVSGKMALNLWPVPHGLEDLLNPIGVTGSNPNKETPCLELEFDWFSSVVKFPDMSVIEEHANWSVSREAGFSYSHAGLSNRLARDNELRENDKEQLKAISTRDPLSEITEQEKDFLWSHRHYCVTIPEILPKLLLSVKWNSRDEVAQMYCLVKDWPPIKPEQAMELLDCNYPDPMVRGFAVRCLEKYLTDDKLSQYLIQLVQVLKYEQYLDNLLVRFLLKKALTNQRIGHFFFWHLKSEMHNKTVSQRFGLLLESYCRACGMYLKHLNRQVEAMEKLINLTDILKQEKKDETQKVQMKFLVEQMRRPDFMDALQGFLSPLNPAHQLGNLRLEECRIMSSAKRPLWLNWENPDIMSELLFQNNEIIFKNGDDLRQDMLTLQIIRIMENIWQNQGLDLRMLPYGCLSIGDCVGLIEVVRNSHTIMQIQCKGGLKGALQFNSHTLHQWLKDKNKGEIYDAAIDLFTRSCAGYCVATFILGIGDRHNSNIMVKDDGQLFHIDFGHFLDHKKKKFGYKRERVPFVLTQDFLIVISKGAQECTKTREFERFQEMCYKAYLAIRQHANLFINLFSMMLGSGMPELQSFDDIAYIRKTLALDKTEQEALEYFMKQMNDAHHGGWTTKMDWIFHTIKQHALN
Sequence of Phosphatidylinositol 4-kinase beta (Q9UBF8 whole entry, canonical isoform): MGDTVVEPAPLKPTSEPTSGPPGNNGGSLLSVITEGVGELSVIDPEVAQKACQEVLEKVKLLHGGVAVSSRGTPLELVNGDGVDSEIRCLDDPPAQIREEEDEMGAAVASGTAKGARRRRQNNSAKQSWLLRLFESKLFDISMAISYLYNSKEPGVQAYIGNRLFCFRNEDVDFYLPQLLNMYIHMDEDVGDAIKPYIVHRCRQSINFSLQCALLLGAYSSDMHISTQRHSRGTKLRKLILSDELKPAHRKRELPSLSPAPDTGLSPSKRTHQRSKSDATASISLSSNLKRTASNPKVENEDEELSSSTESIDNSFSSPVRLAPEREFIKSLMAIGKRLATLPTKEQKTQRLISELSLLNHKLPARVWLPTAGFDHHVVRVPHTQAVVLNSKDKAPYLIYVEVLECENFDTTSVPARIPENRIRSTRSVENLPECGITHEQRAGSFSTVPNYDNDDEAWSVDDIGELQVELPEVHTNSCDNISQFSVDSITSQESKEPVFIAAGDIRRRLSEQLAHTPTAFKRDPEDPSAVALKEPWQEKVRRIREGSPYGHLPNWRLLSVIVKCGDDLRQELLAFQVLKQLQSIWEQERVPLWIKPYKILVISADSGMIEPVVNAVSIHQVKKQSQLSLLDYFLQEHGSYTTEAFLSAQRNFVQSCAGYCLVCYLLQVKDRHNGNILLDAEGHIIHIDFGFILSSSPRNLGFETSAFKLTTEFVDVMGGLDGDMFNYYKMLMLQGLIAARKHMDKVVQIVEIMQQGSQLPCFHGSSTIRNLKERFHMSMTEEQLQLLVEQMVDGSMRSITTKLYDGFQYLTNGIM

SMILES	IC50 [1] [µM]	IC50 [2] [µM]	IC50 [3] [µM]	IC50 [4] [µM]	IC50 [5] [µM]	IC50 [6] [µM]	IC50 [7] [µM]
Nc1nc2ccc(-c3ccc(=O)[nH]c3)cc2s1	3.16	3.98	25.1	50.1	10	31.6	39.8
Nc1nc2ccc(-c3cnccn3)cc2s1	7.94	6.31	2	6.31	3.98	7.94	> 100
Cn1ccc(-c2ccc3nc(N)sc3c2)cc1=O	0.501	0.316	2.51	63.1		5.01	> 100
Nc1nc2ccc(-c3cccnc3)cc2s1	1.58	0.631	2			1.26	31.6
Nc1nc2ccc(-c3ccccn3)cc2s1	10	2.51	10		12.6	79.4	> 100
Cc1ccc(-c2ccc3nc(N)sc3c2)cn1	1.58	0.501	1	2.51	1.26	1.26	> 100
Nc1nc2ccc(-c3ncccn3)cc2s1	15.8	6.31	> 100		31.6	50.1	31.6
Nc1nc2ccc(-c3cnn(C4CC4)c3)cc2s1	7.94	2	10	10	1	3.98	> 100
CS(=O)(=O)c1cncc(-c2ccc3nc(N)sc3c2)c1	0.398	3.98	0.251	0.251	0.126	0.316	> 100
COc1ccc(-c2ccc3nc(N)sc3c2)cn1	0.631	1			0.398	0.794	25.1
Cn1cc(-c2ccc3nc(N)sc3c2)cn1	2.51	1.26	7.94	15.8	2.51	7.94	> 100
CC(C)n1cc(-c2ccc3nc(N)sc3c2)cn1	25.1	2.51	15.8		3.98	20	63.1
CNC(=O)c1ccc(-c2ccc3nc(N)sc3c2)cn1	3.16	2.51	2				31.6
CCOc1ccc(-c2ccc3nc(N)sc3c2)cn1	0.158	0.631	1.58	6.31	2	3.98	> 100
Nc1nc2ccc(-c3ccc(OCCO)nc3)cc2s1	0.316	0.501	1.26	6.31	1.26	2	> 100
CN(C)C(=O)c1ccc(-c2ccc3nc(N)sc3c2)cn1	1.26	39.8	39.8	79.4	20	63.1	> 100
Nc1nc2ccc(-c3cc[nH]c(=O)c3)cc2s1	0.316	0.631	3.98	6.31	1.26	10	15.8
CCSc1ccc(-c2ccc3nc(N)sc3c2)cn1	0.1	0.631	1.26	5.01	1	2	> 100
Nc1nc2ccc(-c3ccc(C(F)(F)F)nc3)cc2s1	15.8	1.58	2	3.98	1	1	> 100
